Experimental data taken from patent publication US20260317344A1, “EGFR INHIBITORS FOR TREATING DISEASE” (BLOSSOMHILL THERAPEUTICS, INC., priority 2023, published 2026).

Assays:
NCI-H1975 cells = assay: 5-Day CellTiter Glo (CTG) cell proliferation assay, NCI-H1975; type: cell-based; details: Homo sapiens; NCI-H1975 cells (L858R/T790M EGFR), 5-day CTG proliferation, 120 hours; read-out: H1975 IC50
Procedure: (§1) 5-Day CellTiter Glo (CTG) Cell Proliferation Assays (PC9, H1975, H827)
(§2) Cell proliferation assays were carried out in NSCLC cells with EGFR activation mutations. Both PC-9 cells and HCC827 cells (purchased from DSMZ) carry a Glu746-Ala750 deletion (d746-750) mutation in exon 19 of the EGFR gene and NCI-H1975 cells carry both L858R activation mutation and T790M gatekeeper mutation in the EGFR gene. One thousand PC-9, NCI-H1975 or HCC827 cells/100 μL per well were seeded in 96-well black plate with transparent bottom and then treated with indicated compounds in a 9-dose dilution series dispensed using TECAN d300e liquid dispenser. Cells were incubated with compounds for 120 hours at 37° C. and 5% CO2. Cell proliferation was measured using CellTiter-Glo 2.0 luciferase-based ATP detection assay (Promega, Madison, WI) at […] per well following the manufacturer's protocol. Plates were then read on a TECAN Sparks multimode microplate reader. Data was analyzed using GraphPad Prism 9 (GraphPad Software, San Diego, CA) to obtain IC50 values.

[1] = target: T1, pEGFR, A431 cells (wildtype EGFR) (Homo sapiens, UniProt P00533); assay: Cellular EGFR phosphorylation assay (LANCE Ultra TR-FRET) in A431 cells; type: cell-based; details: 4 hours at 37° C., 40 ng/mL EGF for the final 10 minutes, read-out: A431 pEGFR IC50
T1 construct: pEGFR (Tyr1068) TR-FRET
T1 sequence (P00533 25-1210): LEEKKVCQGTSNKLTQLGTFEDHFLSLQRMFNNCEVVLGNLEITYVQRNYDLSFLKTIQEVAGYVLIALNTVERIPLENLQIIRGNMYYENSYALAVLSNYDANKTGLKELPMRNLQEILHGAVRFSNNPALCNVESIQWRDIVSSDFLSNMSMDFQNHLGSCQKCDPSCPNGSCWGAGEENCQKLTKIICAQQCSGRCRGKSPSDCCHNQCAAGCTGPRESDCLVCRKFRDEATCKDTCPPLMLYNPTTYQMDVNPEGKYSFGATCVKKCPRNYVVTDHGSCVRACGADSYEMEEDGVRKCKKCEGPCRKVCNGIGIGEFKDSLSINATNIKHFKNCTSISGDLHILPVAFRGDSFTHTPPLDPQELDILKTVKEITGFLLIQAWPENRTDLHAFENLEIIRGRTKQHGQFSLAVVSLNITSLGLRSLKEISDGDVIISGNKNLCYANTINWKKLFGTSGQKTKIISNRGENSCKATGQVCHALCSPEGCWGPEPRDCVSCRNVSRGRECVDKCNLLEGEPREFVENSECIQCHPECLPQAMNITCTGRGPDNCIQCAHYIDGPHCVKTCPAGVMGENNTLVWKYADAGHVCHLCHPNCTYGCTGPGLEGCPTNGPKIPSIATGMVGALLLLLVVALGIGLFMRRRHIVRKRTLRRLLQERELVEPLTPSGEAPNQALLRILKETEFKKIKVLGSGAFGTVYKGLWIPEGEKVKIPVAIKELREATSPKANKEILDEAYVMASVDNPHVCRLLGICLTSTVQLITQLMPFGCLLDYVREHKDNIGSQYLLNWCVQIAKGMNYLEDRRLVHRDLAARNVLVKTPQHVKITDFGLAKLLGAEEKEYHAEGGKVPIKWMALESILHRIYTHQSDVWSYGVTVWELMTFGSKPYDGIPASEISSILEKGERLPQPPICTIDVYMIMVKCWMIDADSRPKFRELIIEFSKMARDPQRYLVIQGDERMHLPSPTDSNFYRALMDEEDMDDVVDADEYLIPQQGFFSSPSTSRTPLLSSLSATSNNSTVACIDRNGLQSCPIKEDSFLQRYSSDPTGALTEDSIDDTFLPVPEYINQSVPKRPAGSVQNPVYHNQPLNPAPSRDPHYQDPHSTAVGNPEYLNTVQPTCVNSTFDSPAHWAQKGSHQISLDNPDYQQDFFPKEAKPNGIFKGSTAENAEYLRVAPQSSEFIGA
Procedure: (§3) Cellular EGFR Phosphorylation Assays
(§4) EGFR phosphorylation assays were conducted in NSCLC cells with EGFR activation mutations. PC-9 cells (purchased from Aldrich-Sigma) carry a Glu746-Ala750 deletion (d746-750) mutation in exon 19 of the EGFR gene and NCI-H1975 cells (purchased from ATCC) carry both L858R activation mutation and T790M gatekeeper mutation in the EGFR gene. A431 cells (purchased from ATCC) with amplification of wildtype EGFR, derived from epidermoid carcinoma, were used to measure the activity against wildtype EGFR. All cells were seeded in 96-well plates. For PC-9 and NCI-H1975 cells, 50 thousand cells were seeded per well. For A431 cells, 30 thousand cells were seeded per well. The next day, cells were exposed to compound for 4 hours at 37° C. and 5% CO2. Compounds were diluted in DMSO and added to cells in a 9-dose, 3-fold dilution, titration curve using TECAN d300e liquid dispenser. For A431 cells, 40 ng/mL of EGF was added to the media for the final 10 minutes of incubation. EGFR phosphorylation was measured using phospho-EGFR (Try1068) LANCE Ultra TR-FRET Detection Kit (TRF4015M) from PerkinElmer according to manufacturer's instructions. In brief, cells were lysed with 40 μL of lysis buffer plus 1× Halt protease and phosphatase inhibitor cocktail (Thermo 78441) and by incubation at room temperature for 1 h on a microplate shaker (350 rpm). 15 μ L of cell lysate was transferred to 384-well white plate and 5 μL of Europium- and ULight-labeled antibodies diluted in 1× detection buffer was added to each well. After 4-6 hours of incubation at room temperature, plates were then read on a TECAN Sparks multimode microplate reader. Data was analyzed using GraphPad Prism 9 (GraphPad Software, San Diego, CA) to obtain IC50 values.

HCC827 cells = assay: 5-Day CellTiter Glo (CTG) cell proliferation assay, HCC827; type: cell-based; details: Homo sapiens; HCC827 cells (d746-750 EGFR), 5-day CTG proliferation, 120 hours; read-out: HCC827 IC50
Procedure: as §1, §2

[2] = target: T2, pEGFR, NCI-H1975 cells (L858R/T790M EGFR) (Homo sapiens, UniProt P00533, L858R/T790M); assay: Cellular EGFR phosphorylation assay (LANCE Ultra TR-FRET) in NCI-H1975 cells; type: cell-based; details: 4 hours at 37° C., read-out: H1975 pEGFR IC50
T2 construct: pEGFR (Tyr1068) TR-FRET
T2 sequence (P00533 25-1210 T790M/L858R): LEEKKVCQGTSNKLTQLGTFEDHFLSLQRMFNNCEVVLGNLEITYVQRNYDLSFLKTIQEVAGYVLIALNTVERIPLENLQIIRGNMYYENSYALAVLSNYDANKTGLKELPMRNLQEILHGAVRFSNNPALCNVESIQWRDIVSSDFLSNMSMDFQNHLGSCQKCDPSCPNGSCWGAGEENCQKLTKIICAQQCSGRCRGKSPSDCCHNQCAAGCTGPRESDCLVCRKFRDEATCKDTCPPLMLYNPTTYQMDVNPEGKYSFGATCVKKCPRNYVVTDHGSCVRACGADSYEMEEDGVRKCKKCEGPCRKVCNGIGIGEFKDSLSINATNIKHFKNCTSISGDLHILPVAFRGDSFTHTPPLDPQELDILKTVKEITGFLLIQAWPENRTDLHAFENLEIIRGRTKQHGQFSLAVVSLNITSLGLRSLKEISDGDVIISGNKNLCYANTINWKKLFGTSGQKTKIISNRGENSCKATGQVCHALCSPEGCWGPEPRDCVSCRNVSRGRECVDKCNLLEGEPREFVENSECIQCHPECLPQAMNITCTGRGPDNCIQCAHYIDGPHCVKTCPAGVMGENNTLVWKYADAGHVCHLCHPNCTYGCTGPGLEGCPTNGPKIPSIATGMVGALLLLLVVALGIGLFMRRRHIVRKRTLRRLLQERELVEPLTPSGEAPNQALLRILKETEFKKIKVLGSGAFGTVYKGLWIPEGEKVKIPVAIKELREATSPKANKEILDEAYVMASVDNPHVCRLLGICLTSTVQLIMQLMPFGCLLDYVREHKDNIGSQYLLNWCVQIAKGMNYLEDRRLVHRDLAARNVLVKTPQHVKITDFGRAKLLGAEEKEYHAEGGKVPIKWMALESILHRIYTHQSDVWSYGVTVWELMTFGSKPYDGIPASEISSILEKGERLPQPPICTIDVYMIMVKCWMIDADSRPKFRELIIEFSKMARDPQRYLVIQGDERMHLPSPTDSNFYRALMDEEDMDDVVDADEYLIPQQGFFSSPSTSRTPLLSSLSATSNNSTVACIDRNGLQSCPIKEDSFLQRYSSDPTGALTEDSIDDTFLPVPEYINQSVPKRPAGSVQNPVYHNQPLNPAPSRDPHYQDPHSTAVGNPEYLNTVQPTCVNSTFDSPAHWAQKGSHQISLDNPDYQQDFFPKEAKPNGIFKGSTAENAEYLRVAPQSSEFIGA
Procedure: as §3, §4

[3] = target: T3, pEGFR, PC-9 cells (d746-750 EGFR) (Homo sapiens, UniProt P00533, DEL746-750); assay: Cellular EGFR phosphorylation assay (LANCE Ultra TR-FRET) in PC-9 cells; type: cell-based; details: 4 hours at 37° C., read-out: PC-9 pEGFR IC50
T3 construct: pEGFR (Tyr1068) TR-FRET
T3 sequence (P00533 with tags, fused parts or gaps DEL746-750): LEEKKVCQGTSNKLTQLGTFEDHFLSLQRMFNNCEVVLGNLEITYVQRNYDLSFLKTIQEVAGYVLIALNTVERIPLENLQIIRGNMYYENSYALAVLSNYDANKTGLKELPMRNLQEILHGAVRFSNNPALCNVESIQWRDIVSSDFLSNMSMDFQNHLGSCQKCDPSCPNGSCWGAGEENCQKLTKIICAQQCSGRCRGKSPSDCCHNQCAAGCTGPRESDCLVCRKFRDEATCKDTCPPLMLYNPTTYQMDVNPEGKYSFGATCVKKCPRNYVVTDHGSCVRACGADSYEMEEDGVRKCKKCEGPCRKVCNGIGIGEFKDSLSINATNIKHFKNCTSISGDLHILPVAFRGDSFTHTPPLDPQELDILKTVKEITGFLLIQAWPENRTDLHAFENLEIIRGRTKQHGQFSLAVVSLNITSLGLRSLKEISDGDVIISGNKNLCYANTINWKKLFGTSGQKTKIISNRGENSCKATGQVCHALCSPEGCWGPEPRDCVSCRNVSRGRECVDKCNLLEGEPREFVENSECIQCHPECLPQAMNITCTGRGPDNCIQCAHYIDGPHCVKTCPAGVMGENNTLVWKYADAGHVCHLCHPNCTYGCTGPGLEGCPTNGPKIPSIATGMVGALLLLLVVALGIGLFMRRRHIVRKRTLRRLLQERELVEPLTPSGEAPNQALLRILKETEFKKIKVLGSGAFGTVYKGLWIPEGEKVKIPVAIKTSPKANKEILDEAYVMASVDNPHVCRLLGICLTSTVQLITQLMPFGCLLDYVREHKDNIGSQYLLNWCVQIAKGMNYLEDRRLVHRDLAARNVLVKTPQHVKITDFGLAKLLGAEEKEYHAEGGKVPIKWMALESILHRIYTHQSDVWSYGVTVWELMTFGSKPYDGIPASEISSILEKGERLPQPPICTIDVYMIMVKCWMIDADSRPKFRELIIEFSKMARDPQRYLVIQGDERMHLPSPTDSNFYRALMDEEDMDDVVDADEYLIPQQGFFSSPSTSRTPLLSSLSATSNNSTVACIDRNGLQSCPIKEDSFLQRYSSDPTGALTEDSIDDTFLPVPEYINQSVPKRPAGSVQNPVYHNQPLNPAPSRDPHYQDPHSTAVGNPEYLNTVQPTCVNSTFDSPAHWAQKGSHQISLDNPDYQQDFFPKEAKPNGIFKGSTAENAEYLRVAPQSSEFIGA
Procedure: as §3, §4

PC-9 cells = assay: 5-Day CellTiter Glo (CTG) cell proliferation assay, PC-9; type: cell-based; details: Homo sapiens; PC-9 cells (d746-750 EGFR), 5-day CTG proliferation, 120 hours; read-out: PC-9 IC50
Procedure: as §1, §2

EGFR (D746-750) = EGFR (D746-750) (Homo sapiens, UniProt P00533, DEL746-750); assay: HotSpot radiometric kinase assay, inhibition of EGFR 746-750 mutant; type: biochemical; details: 33P ATP, room temperature, 120 m
Procedure: (§5) Biochemical Assays for inhibition of wild-type and mutant EGFRs
(§6) Briefly, specific kinase/substrate pairs along with required cofactors were prepared in reaction buffer; 20 mM HEPES pH 7.5, 10 mM […], 1 mM EGTA, 0.02% Brij35, 0.02 mg/ml BSA, 0.1 mM Na3VO4, 2 mM DTT, 1% DMSO. Compounds were delivered into the reaction, followed ~20 minutes later by addition of a mixture of ATP (Sigma, St. Louis MO) and ^33P ATP (Perkin Elmer, Waltham MA) to a final concentration of […]. Reactions were carried out at room temperature for 120 m, followed by spotting of the reactions onto P81 ion exchange filter paper (Whatman Inc., Piscataway, NJ). Unbound phosphate was removed by extensive washing of filters in 0.75% phosphoric acid. […] IC50 values and curve fits were obtained using Prism (GraphPad Software).

EGFR (D770_N771insNPG) = EGFR (D770_N771insNPG) (Homo sapiens, UniProt P00533, INS770NPG); assay: HotSpot radiometric kinase assay, inhibition of EGFR (D770_N771insNPG) mutant; type: biochemical; details: 33P ATP, room temperature, 120 m
Procedure: as §5, §6

EGFR (L858R/T790M/C797S) = EGFR (L858R/T790M/C797S) (Homo sapiens, UniProt P00533, C797S/L858R/T790M); assay: HotSpot radiometric kinase assay, inhibition of EGFR L858R/T790M/C797S mutant; type: biochemical; details: 33P ATP, room temperature, 120 m
EGFR (L858R/T790M/C797S), sequence (P00533 25-1210 T790M/C797S/L858R): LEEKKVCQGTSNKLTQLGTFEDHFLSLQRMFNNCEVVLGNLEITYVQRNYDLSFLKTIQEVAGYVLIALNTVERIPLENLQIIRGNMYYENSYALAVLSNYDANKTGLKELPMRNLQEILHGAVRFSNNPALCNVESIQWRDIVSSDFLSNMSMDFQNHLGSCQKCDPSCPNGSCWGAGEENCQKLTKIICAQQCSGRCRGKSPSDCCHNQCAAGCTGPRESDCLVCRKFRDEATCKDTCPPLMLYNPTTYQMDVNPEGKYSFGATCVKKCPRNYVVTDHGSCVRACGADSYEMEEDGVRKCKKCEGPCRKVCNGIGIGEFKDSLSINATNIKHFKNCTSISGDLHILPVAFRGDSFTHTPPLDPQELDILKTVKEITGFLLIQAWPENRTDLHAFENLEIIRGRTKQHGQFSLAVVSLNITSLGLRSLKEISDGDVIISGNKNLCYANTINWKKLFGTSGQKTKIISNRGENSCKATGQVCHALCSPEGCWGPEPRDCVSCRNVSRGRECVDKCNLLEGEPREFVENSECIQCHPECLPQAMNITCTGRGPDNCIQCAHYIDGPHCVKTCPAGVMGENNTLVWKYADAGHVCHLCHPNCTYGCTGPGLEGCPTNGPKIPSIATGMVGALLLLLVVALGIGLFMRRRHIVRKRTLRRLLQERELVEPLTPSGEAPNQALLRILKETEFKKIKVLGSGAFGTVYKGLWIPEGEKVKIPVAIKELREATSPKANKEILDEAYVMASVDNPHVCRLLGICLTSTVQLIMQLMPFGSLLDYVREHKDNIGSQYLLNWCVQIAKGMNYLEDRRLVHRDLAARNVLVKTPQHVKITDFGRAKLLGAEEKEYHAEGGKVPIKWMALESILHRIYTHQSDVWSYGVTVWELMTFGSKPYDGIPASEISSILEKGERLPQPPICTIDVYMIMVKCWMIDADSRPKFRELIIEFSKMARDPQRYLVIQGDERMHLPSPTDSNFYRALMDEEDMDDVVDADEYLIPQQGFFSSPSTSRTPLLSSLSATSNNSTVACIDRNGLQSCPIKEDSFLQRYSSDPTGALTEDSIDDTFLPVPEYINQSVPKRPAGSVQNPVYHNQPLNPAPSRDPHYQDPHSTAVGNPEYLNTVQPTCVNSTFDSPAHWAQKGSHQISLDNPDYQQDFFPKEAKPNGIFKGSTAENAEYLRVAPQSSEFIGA
Procedure: as §5, §6

EGFR (D746-750/C797S) = EGFR (D746-750/C797S) (Homo sapiens, UniProt P00533, C797S/DEL746-750); assay: HotSpot radiometric kinase assay, inhibition of EGFR 746-750/C797S mutant; type: biochemical; details: 33P ATP, room temperature, 120 m
Procedure: as §5, §6

[4] = test system: BaF3 cells with engineered EGFR L858R/T790M/C797S; assay: 3-Day CellTiter Glo (CTG) cell proliferation assay, BaF3 EGFR L858R/T790M/C797S; type: cell-based; details: Mus musculus, 3-day CTG proliferation, 72 hours
Procedure: 3-DAY CellTiter Glo (CTG) Cell Proliferation Assays (BaF3 Cell Lines)
Cell proliferation assays were carried out in BaF3 cells engineered with EGFR mutations. BaF3 cells with engineered EGFR L858R/T790M/C797S, EGFR L858R/C797S, or EGFR d746-750/T790M transgene, one thousand cells/50 μL per well were seeded in white 384-well plate, followed by treatment with indicated compounds in a 9-dose dilution series using TECAN d300e liquid dispenser. Cells were incubated with compounds for 72 hours at 37° C. and 5% CO2. Cell proliferation was measured using CellTiter-Gbo 2.0 luciferase-based ATP detection assay (Promega, Madison, WI) at 18 μL per well following the manufacturer's protocol. Plates were then read on a TECAN Sparks multimode microplate reader. Data was analyzed using GraphPad Prism 9 (GraphiPad Software, San Diego, CA) to obtain IC50 values.

SMILES | IC50 (NCI-H1975 cells) [nM] | IC50 [1] [nM] | IC50 (HCC827 cells) [nM] | IC50 [2] [nM] | IC50 [3] [nM] | IC50 (PC-9 cells) [nM] | IC50 (EGFR (D746-750)) [nM] | IC50 (EGFR (D770_N771insNPG)) [nM] | IC50 (EGFR (L858R/T790M/C797S)) [nM] | IC50 (EGFR (D746-750/C797S)) [nM] | IC50 [4] [nM]
Cc1nn(C)c2c1-c1cc3c(n[nH]c3cn1)/C=C/c1c(OCC#N)nn(CCO)c1CN1CCC[C@@H]1CO2 [Ex. 43, {[(8aR,19E)-3-(2-hydroxyethyl)-11,13-dimethyl-3,4,7,8,8a,9,11,17-octahydro-6H-14,16-(azenometheno)tripyrazolo[3,4-f:3′,4′-j:4″,3″-n]pyrrolo[2,1-c][1,4]oxazacyclopentadecin-1-yl]oxy}acetonitrile] |  |  |  |  |  |  | 0.09 | 0.18 | 0.16 | 0.23 | 
Cc1c2c(nn1C)CN(C)CCOc1c(cnn1C)-c1cc3c(n[nH]c3cn1)/C=C/2 [Ex. 73, (17E)-8,12,15,16-tetramethyl-2,10,11,12,13,15-hexahydro-8H-5,3-(azenometheno)tripyrazolo[3,4-f:3′,4′-j:4″,3″-n][1,4]oxazacyclopentadecine] | 5.53 | 564 | 0.24 |  | 72.6 | 23.7 |  |  |  |  | 35.8
Cc1nn(C)c2c1-c1cc3c(n[nH]c3c(C)n1)/C=C/c1cnn([C@@H](C)CO)c1CN(C1CC1)C[C@H](C)O2 [Ex. 127, (2S)-2-[(10S,17E)-12-cyclopropyl-6,8,10,20-tetramethyl-2,8,10,11,12,13-hexahydro-14H-5,3-(azenometheno)tripyrazolo[3,4-f:3′,4′-j:4″,3″-n][1,4]oxazacyclopentadecin-14-yl]propan-1-ol] | 1.92 |  | 0.37 |  |  | 1.26 |  |  |  |  | 

More lines, now with the values ahead:

IC50 (NCI-H1975 cells) [nM] | IC50 [1] [nM] | IC50 (HCC827 cells) [nM] | IC50 [2] [nM] | IC50 [3] [nM] | IC50 (PC-9 cells) [nM] | IC50 (EGFR (D746-750)) [nM] | IC50 (EGFR (D770_N771insNPG)) [nM] | IC50 (EGFR (L858R/T790M/C797S)) [nM] | IC50 (EGFR (D746-750/C797S)) [nM] | IC50 [4] [nM] | SMILES
1.76 | 40.5 | 0.29 | 2.9 | 1.94 | 0.76 |  |  |  |  |  | CCN1Cc2c(c(OCC#N)nn2[C@@H](C)CO)/C=C/c2n[nH]c3c(C)nc(cc23)-c2c(C)nn(C)c2O[C@@H](C)C1 [Ex. 148, {[(10S,17E)-12-ethyl-14-[(2S)-1-hydroxypropan-2-yl]-6,8,10,20-tetramethyl-2,10,11,12,13,14-hexahydro-8H-5,3-(azenometheno)tripyrazolo[3,4-f:3′,4′-j:4″,3″-n][1,4]oxazacyclopentadecin-16-yl]oxy}acetonitrile]
20.4 | 11.3 | 0.34 |  |  | 0.59 |  |  |  |  |  | CCOc1nn([C@@H](C)CO)c2c1/C=C/c1n[nH]c3c(C)nc(cc13)-c1c(COC)nn(C)c1O[C@@H](C)CN(CC)C2 [Ex. 147, (2S)-2-[(10S,17E)-16-ethoxy-12-ethyl-6-(methoxymethyl)-8,10,20-trimethyl-2,8,10,11,12,13-hexahydro-14H-5,3-(azenometheno)tripyrazolo[3,4-f:3′,4′-j:4″,3″-n][1,4]oxazacyclopentadecin-14-yl]propan-1-ol]
